Experiments:
Type in all cases: in vivo
Digitaria adscendens [1] = assay: Test Example 2 upland soil treatment; conditions: Table 5, upland soil treatment, index 0-5
Procedure, shortened: (§1)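 Pre-emergence soil application the day after sowing, active ingredient at 1 kg per hectare as diluted wettable powder, seeds covered with about 1 cm soil. Assessed 21 days after application on a 0–5 scale (5 = ≥90% herbicidal effect or phytotoxicity; 0 = <10%).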

Setaria viridis [2] = assay: Test Example 2 upland soil treatment; conditions: Table 5, upland soil treatment, index 0-5
Procedure, shortened: as §1

Stellaria media [3] = assay: Test Example 2 upland soil treatment; conditions: Table 5, upland soil treatment, index 0-5
Procedure, shortened: as §1

Chenopodium album [4] = assay: Test Example 2 upland soil treatment; conditions: Table 5, upland soil treatment, index 0-5
Procedure, shortened: as §1

Digitaria adscendens [5] = assay: Test Example 1 upland field foliage treatment; conditions: Table 4, upland field foliage treatment, index 0-5
Procedure, shortened: (§2)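 Post-emergence foliar spray of water-diluted wettable powder at 1 kg active ingredient per hectare, applied 14 days after sowing in upland soil. Weed control or crop phytotoxicity rated 21 days later on a 0–5 scale (5: ≥90%, 0: <10%).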

Setaria viridis [6] = assay: Test Example 1 upland field foliage treatment; conditions: Table 4, upland field foliage treatment, index 0-5
Procedure, shortened: as §2

Stellaria media [7] = assay: Test Example 1 upland field foliage treatment; conditions: Table 4, upland field foliage treatment, index 0-5
Procedure, shortened: as §2

Chenopodium album [8] = assay: Test Example 1 upland field foliage treatment; conditions: Table 4, upland field foliage treatment, index 0-5
Procedure, shortened: as §2

Scirpus juncoides = assay: Test Example 3 paddy field treatment; conditions: active ingredient 1 kg per hectare, index 0-5
Procedure, shortened: (§3)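 Weed seeds sown in puddled paddy soil under 4 cm water, with two-leaf Koshihikari rice transplanted; 10 days later a wettable powder was applied to the water surface at 1 kg active ingredient/ha. Scored 21 days after application on a 0–5 scale (0 = <10%, 5 = ≥90% herbicidal effect or phytotoxicity).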

Monochoria vaginalis = assay: Test Example 3 paddy field treatment; conditions: active ingredient 1 kg per hectare, index 0-5
Procedure, shortened: as §3

Ammannia multiflora = assay: Test Example 3 paddy field treatment; conditions: active ingredient 1 kg per hectare, index 0-5
Procedure, shortened: as §3

Echinochloa crusgalli = assay: Test Example 3 paddy field treatment; conditions: active ingredient 1 kg per hectare, index 0-5
Procedure, shortened: as §3

Rice (Oryza sativa) = assay: Test Example 3 paddy field treatment, crop phytotoxicity; conditions: active ingredient 1 kg per hectare, index 0-5
Procedure, shortened: as §3

soybean (Glycine max) [9] = assay: Test Example 2 upland soil treatment, crop phytotoxicity; conditions: Table 5, upland soil treatment, index 0-5
Procedure, shortened: as §1

[10] = test system: wheat (Triticum aestivum); assay: as above; conditions: Table 5, upland soil treatment, index 0-5
Procedure, shortened: as §1

soybean (Glycine max) [11] = assay: Test Example 1 upland field foliage treatment, crop phytotoxicity; conditions: Table 4, upland field foliage treatment, index 0-5
Procedure, shortened: as §2

[12] = test system: wheat (Triticum aestivum); assay: as above; conditions: Table 4, upland field foliage treatment, index 0-5
Procedure, shortened: as §2

[13] = paddy field treatment, wettable powder, 21st day after the dropping
[14] = Table 6, paddy field treatment, 21st day after dropping

SMILES	Herbicidal activity DA: Digitaria adscendens (Digitaria adscendens [1])	Herbicidal activity SV: Setaria viridis (Setaria viridis [2])	Herbicidal activity SM: Stellaria media (Stellaria media [3])	Herbicidal activity CA: Chenopodium album (Chenopodium album [4])	Herbicidal activity DA: Digitaria adscendens (Digitaria adscendens [5])	Herbicidal activity SV: Setaria viridis (Setaria viridis [6])	Herbicidal activity SM: Stellaria media (Stellaria media [7])	Herbicidal activity CA: Chenopodium album (Chenopodium album [8])	Herbicidal activity (phytotoxicity) GM: Soybean (Glycine max) (soybean (Glycine max) [9])	Herbicidal activity (phytotoxicity) TA: Wheat (Triticum aestivum) [10]	Herbicidal activity (phytotoxicity) GM: Soybean (Glycine max) (soybean (Glycine max) [11])	Herbicidal activity (phytotoxicity) TA: Wheat (Triticum aestivum) [12]	further results
CNC(=O)C(Cn1cc(Cl)c(-c2ccccc2)n1)=NOC [Compound 14]	5 (herbicidal effect of not less than 90%, or phytotoxicity of 90% or more)	5 (herbicidal effect of not less than 90%, or phytotoxicity of 90% or more)	5 (herbicidal effect of not less than 90%, or phytotoxicity of 90% or more)	5 (herbicidal effect of not less than 90%, or phytotoxicity of 90% or more)	5 (herbicidal effect of not less than 90%, or phytotoxicity of 90% or more)	5 (herbicidal effect of not less than 90%, or phytotoxicity of 90% or more)	5 (herbicidal effect of not less than 90%, or phytotoxicity of 90% or more)	5 (herbicidal effect of not less than 90%, or phytotoxicity of 90% or more)	1 (herbicidal effect of not less than 10% and less than 30%, or phytotoxicity of 10% or more and less than 30%)	0 (herbicidal effect of not less than 0% and less than 10%, or phytotoxicity of 0% or more and less than 10%)	0 (herbicidal effect of not less than 0% and less than 10%, or phytotoxicity of 0% or more and less than 10%)	0 (herbicidal effect of not less than 0% and less than 10%, or phytotoxicity of 0% or more and less than 10%)	Herbicidal activity SJ (Scirpus juncoides; [13]): 5 (herbicidal effect of not less than 90%, or phytotoxicity of 90% or more); Herbicidal activity MV (Monochoria vaginalis; [13]): 5 (herbicidal effect of not less than 90%, or phytotoxicity of 90% or more); Herbicidal activity AM (Ammannia multiflora; [13]): 5 (herbicidal effect of not less than 90%, or phytotoxicity of 90% or more); Herbicidal activity EC (Echinochloa crusgalli; [13]): 5 (herbicidal effect of not less than 90%, or phytotoxicity of 90% or more); Herbicidal activity OS (phytotoxicity to rice) (Rice (Oryza sativa); paddy field treatment, transplanted rice Koshihikari, wettable powder, 21st day after the dropping): 1 (herbicidal effect of not less than 10% and less than 30%, or phytotoxicity of 10% or more and less than 30%)
CNC(=O)C(Cn1cc(C)c(-c2cccc(F)c2F)n1)=NOC [Compound 55]	5 (herbicidal effect of not less than 90%, or phytotoxicity of 90% or more)	5 (herbicidal effect of not less than 90%, or phytotoxicity of 90% or more)	5 (herbicidal effect of not less than 90%, or phytotoxicity of 90% or more)	5 (herbicidal effect of not less than 90%, or phytotoxicity of 90% or more)	–	–	–	–	0 (herbicidal effect of not less than 0% and less than 10%, or phytotoxicity of 0% or more and less than 10%)	0 (herbicidal effect of not less than 0% and less than 10%, or phytotoxicity of 0% or more and less than 10%)	–	–	Herbicidal activity SJ (Scirpus juncoides; [14]): 5 (herbicidal effect of not less than 90%, or phytotoxicity of 90% or more); Herbicidal activity MV (Monochoria vaginalis; [14]): 5 (herbicidal effect of not less than 90%, or phytotoxicity of 90% or more); Herbicidal activity AM (Ammannia multiflora; [14]): 5 (herbicidal effect of not less than 90%, or phytotoxicity of 90% or more); Herbicidal activity EC (Echinochloa crusgalli; [14]): 5 (herbicidal effect of not less than 90%, or phytotoxicity of 90% or more); Herbicidal activity (phytotoxicity) OS (Rice (Oryza sativa); Table 6, paddy field treatment, transplanted rice, 21st day after dropping): 0 (herbicidal effect of not less than 0% and less than 10%, or phytotoxicity of 0% or more and less than 10%)
CCN(CC)C(=O)C(Cn1cc(C)c(-c2ccccc2)n1)=NOC [Compound 94]	3 (herbicidal effect of not less than 50% and less than 70%, or phytotoxicity of 50% or more and less than 70%)	3 (herbicidal effect of not less than 50% and less than 70%, or phytotoxicity of 50% or more and less than 70%)	4 (herbicidal effect of not less than 70% and less than 90%, or phytotoxicity of 70% or more and less than 90%)	5 (herbicidal effect of not less than 90%, or phytotoxicity of 90% or more)	3 (herbicidal effect of not less than 50% and less than 70%, or phytotoxicity of 50% or more and less than 70%)	3 (herbicidal effect of not less than 50% and less than 70%, or phytotoxicity of 50% or more and less than 70%)	5 (herbicidal effect of not less than 90%, or phytotoxicity of 90% or more)	5 (herbicidal effect of not less than 90%, or phytotoxicity of 90% or more)	0 (herbicidal effect of not less than 0% and less than 10%, or phytotoxicity of 0% or more and less than 10%)	0 (herbicidal effect of not less than 0% and less than 10%, or phytotoxicity of 0% or more and less than 10%)	0 (herbicidal effect of not less than 0% and less than 10%, or phytotoxicity of 0% or more and less than 10%)	0 (herbicidal effect of not less than 0% and less than 10%, or phytotoxicity of 0% or more and less than 10%)	–
CNC(=O)C(Cn1cc(C)c(-c2ccccc2)n1)=NOCc1ccccc1 [Compound 106]	4 (herbicidal effect of not less than 70% and less than 90%, or phytotoxicity of 70% or more and less than 90%)	3 (herbicidal effect of not less than 50% and less than 70%, or phytotoxicity of 50% or more and less than 70%)	4 (herbicidal effect of not less than 70% and less than 90%, or phytotoxicity of 70% or more and less than 90%)	4 (herbicidal effect of not less than 70% and less than 90%, or phytotoxicity of 70% or more and less than 90%)	3 (herbicidal effect of not less than 50% and less than 70%, or phytotoxicity of 50% or more and less than 70%)	3 (herbicidal effect of not less than 50% and less than 70%, or phytotoxicity of 50% or more and less than 70%)	3 (herbicidal effect of not less than 50% and less than 70%, or phytotoxicity of 50% or more and less than 70%)	3 (herbicidal effect of not less than 50% and less than 70%, or phytotoxicity of 50% or more and less than 70%)	0 (herbicidal effect of not less than 0% and less than 10%, or phytotoxicity of 0% or more and less than 10%)	0 (herbicidal effect of not less than 0% and less than 10%, or phytotoxicity of 0% or more and less than 10%)	0 (herbicidal effect of not less than 0% and less than 10%, or phytotoxicity of 0% or more and less than 10%)	0 (herbicidal effect of not less than 0% and less than 10%, or phytotoxicity of 0% or more and less than 10%)	–
CON=C(Cn1cc(C)c(-c2ccccc2)n1)C(=O)NN(C)C [Compound 124]	3 (herbicidal effect of not less than 50% and less than 70%, or phytotoxicity of 50% or more and less than 70%)	3 (herbicidal effect of not less than 50% and less than 70%, or phytotoxicity of 50% or more and less than 70%)	4 (herbicidal effect of not less than 70% and less than 90%, or phytotoxicity of 70% or more and less than 90%)	5 (herbicidal effect of not less than 90%, or phytotoxicity of 90% or more)	3 (herbicidal effect of not less than 50% and less than 70%, or phytotoxicity of 50% or more and less than 70%)	3 (herbicidal effect of not less than 50% and less than 70%, or phytotoxicity of 50% or more and less than 70%)	4 (herbicidal effect of not less than 70% and less than 90%, or phytotoxicity of 70% or more and less than 90%)	4 (herbicidal effect of not less than 70% and less than 90%, or phytotoxicity of 70% or more and less than 90%)	0 (herbicidal effect of not less than 0% and less than 10%, or phytotoxicity of 0% or more and less than 10%)	0 (herbicidal effect of not less than 0% and less than 10%, or phytotoxicity of 0% or more and less than 10%)	0 (herbicidal effect of not less than 0% and less than 10%, or phytotoxicity of 0% or more and less than 10%)	0 (herbicidal effect of not less than 0% and less than 10%, or phytotoxicity of 0% or more and less than 10%)	–

— patent US7192906B2, “Substituted pyrazole derivatives, production process thereof, and herbicide compositions containing the derivatives” (SDS Biotech K.K., priority 2001, dated 2007)
